Data taken from US20110045101A1, “FUNGICIDAL SUBSTITUTED AZOLES” (E.I. Du Pont De Nemours and Company, priority 2009, published 2011).
Marks after values point to notes of the source that are not given here.

Key:
Type in all cases: in vivo
Details in all cases: 100 = 100% disease control
[1] = tested on: Puccinia recondita f. sp. tritici; assay: Test I: wheat leaf rust on wheat seedlings, sprayed the day before inoculation, visual disease rating
Method in brief: (§1)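 Compounds were dissolved in acetone (3% of final volume), then suspended in 50/50 acetone/purified water with 250 ppm Trem® 014 surfactant. Suspensions at 200 ppm (some at 40 ppm) were sprayed to run-off, 200 ppm being equivalent to 500 g/ha.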

[2] = tested on: Botrytis cinerea; assay: Test C: tomato Botrytis on tomato seedlings, sprayed the day before inoculation, visual disease rating
Method in brief: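 Compounds were dissolved in acetone (3% of final volume), then suspended in 50/50 acetone/purified water containing 250 ppm polyhydric alcohol ester surfactant. Suspensions were sprayed to run-off on tomato seedlings at 200 ppm, equivalent to 500 g/ha, or at 40 ppm where marked.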

[3] = tested on: Septoria tritici; assay: Test G: wheat leaf blotch on wheat seedlings, sprayed the day before inoculation, visual disease rating
Method in brief: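 Disease was rated visually after Septoria tritici inoculation, 48 h saturated incubation at 24°C and 19 days in a 20°C growth chamber. Inoculation followed one day after run-off spraying of seedlings with compound at 200 ppm (≈500 g/ha) or, where marked, 40 ppm, formulated in acetone/water with surfactant.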

[4] = tested on: Septoria nodorum; assay: Test F: wheat glume blotch on wheat seedlings, sprayed the day before inoculation, visual disease rating
Method in brief: as §1

[5] = tested on: Alternaria solani; assay: Test D: tomato early blight, sprayed the day before inoculation, visual disease rating
Method in brief: as §1

[6] = tested on: Erysiphe graminis f. sp. tritici; assay: Test J: wheat powdery mildew on wheat seedlings, sprayed the day before inoculation, visual disease rating
Method in brief: as §1

[7] = 200 ppm, 0 = no control relative to controls
[8] = 40 ppm (marked *), 0 = no control

SMILES	Test I disease control rating ([1]; 200 ppm, 0 = no control)	Test C disease control rating ([2]; 200 ppm, 0 = no control)	Test G disease control rating ([3]; 200 ppm, 0 = no control)	Test F disease control rating ([4]; 200 ppm, 0 = no control)	Test D disease control rating ([5]; 200 ppm, 0 = no control)	Test J disease control rating ([6]; 200 ppm, 0 = no control)	Test J disease control rating [6, 7]	Test I disease control rating [1, 7]	Test C disease control rating [2, 7]	Test G disease control rating [3, 7]	Test F disease control rating [4, 7]	Test D disease control rating [5, 7]	other results
Fc1ccc(-n2c(Br)nc(Cl)c2-c2c(F)cccc2F)cc1F [compound 169]	88%	99%	96%	40%	100%	99%							
COc1cc(F)c(-c2c(C)ncn2-c2ccc(Cl)cc2)c(F)c1 [compound 56]							99%						Test I disease control rating ([1]; 40 ppm (marked *)): 94* %; Test C disease control rating ([2]; 40 ppm (marked *)): 96* %; Test G disease control rating ([3]; 40 ppm (marked *)): 96* %; Test F disease control rating ([4]; 40 ppm (marked *)): 60* %; Test D disease control rating ([5]; 40 ppm (marked *)): 100* %
Fc1ccc(F)c(-c2c(Cl)nc(Br)n2-c2ccc(Cl)c(Cl)c2)c1F [compound 440]							99%	98%	99%	95%	98%	100%	
Cc1cc(-c2cnc(Cl)n2-c2ccc(Cl)cc2)sc1CCl [compound 452]							76%	86%	55%	86%	0%	0%	
Fc1cc(-n2c(Cl)nc(Cl)c2-c2c(F)ccc(F)c2F)ccc1Cl [compound 135]							100%	100%	99%	93%	0%	100%	
COc1cc(F)c(-c2c(Cl)nc(Cl)n2-c2ccc(F)c(F)c2)c(F)c1 [compound 454]							100%	100%	77%	93%	33%	100%	
COc1cc(F)c(-n2c(Cl)nc(Cl)c2-c2ccc(Cl)cc2)c(F)c1 [compound 297]													Test I disease control rating [1, 8]: 99* %; Test C disease control rating [2, 8]: 99* %; Test G disease control rating [3, 8]: 94* %; Test F disease control rating [4, 8]: 99* %; Test D disease control rating [5, 8]: 100* %; Test J disease control rating [6, 8]: 100* %
COc1ccc(F)c(-c2c(Cl)ncn2-c2ccc(Cl)cc2)c1F [compound 112]							99%	99%	99%	98%	89%	100%	
Fc1cccc(F)c1-c1c(Cl)nc(Cl)n1-c1cccc(Cl)c1 [compound 222]	97%	99%	99%	0%	99%	98%							
Fc1ccc(-n2cnc(Cl)c2-c2c(F)cccc2F)cc1F [compound 160]	28%	91%	93%	0%	93%	98%							
Cc1nc(Cl)c(-c2c(F)cccc2F)n1-c1ccc(C(F)(F)F)cc1 [compound 92]							100%	89%	76%	98%	0%	100%	
COc1cc(F)c(-c2c(-c3ccc(Cl)c(F)c3)c(C)nn2C)c(F)c1 [compound 79]							100%	92%	53%	95%	0%	97%	
COc1cc(F)c(-n2cnc(Cl)c2-c2ccc(Cl)cc2)c(F)c1 [compound 277]													Test I disease control rating [1, 8]: 88* %; Test C disease control rating [2, 8]: 99* %; Test G disease control rating [3, 8]: 89* %; Test F disease control rating [4, 8]: 0* %; Test D disease control rating [5, 8]: 0* %; Test J disease control rating [6, 8]: 94* %
Cc1nc(C)n(-c2ccc(Cl)cc2)c1-c1c(F)ccc(F)c1Cl [compound 388]							100%	100%	99%	99%	60%	100%	
COc1cc(F)c(-c2c(Cl)nc(I)n2-c2ccc(Cl)c(F)c2)c(F)c1 [compound 241]	96%	100%	96%	100%	100%	93%							
Fc1ccc(-n2c(Br)nc(Cl)c2-c2c(F)cccc2F)cc1 [compound 72]							100%	99%	96%	97%	92%	100%	
Fc1ccc(-n2c(Br)nc(Cl)c2-c2c(F)cccc2Cl)cc1 [compound 185]	100%	99%	94%	78%	100%	99%							
COc1cc(F)c(-c2c(Cl)nc(Cl)n2-c2ccc(F)cc2)c(F)c1 [compound 142]							100%	100%	99%	94%	97%	100%	
Cc1ncn(-c2ccc(Cl)c(F)c2)c1-c1cccnc1 [compound 252]	0%	15%	13%	0%	0%	0%							
Cc1nc(Cl)c(-c2c(F)cccc2F)n1-c1ccc(Cl)c(F)c1 [compound 247]	100%	100%	97%	100%	100%	100%							
Fc1cccc(F)c1-c1c(Cl)nc(Br)n1-c1ccc(Br)cc1 [compound 66]							99%	99%	99%	94%	99%	100%	
Cc1nc(Cl)n(-c2ccc(Cl)c(F)c2)c1-c1c(Cl)cncc1Cl [compound 262]	100%	99%	96%	69%	99%	100%							
COc1cc(F)c(-n2cnc(Br)c2-c2ccc(Cl)cc2)c(F)c1 [compound 173]													Test I disease control rating [1, 8]: 41* %; Test C disease control rating [2, 8]: 98* %; Test G disease control rating [3, 8]: 90* %; Test F disease control rating [4, 8]: 0* %; Test D disease control rating [5, 8]: 0* %; Test J disease control rating [6, 8]: 0* %
